What all share (type): cell-based
For one experiment, the target named is EGFR L858R+T790M (Homo sapiens, UniProt P00533, L858R/T790M). The experiment is described as follows: pEGFR Y1068 ELISA assay, NIH3T3/EGFR_L858R+T790M cells.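 Note: sandwich ELISA of EGFR phosphorylated at Tyr1068 in lysates of stably transfected NIH/3T3 cells, 11-point threefold dilution series run in duplicate.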 The following applies: 3T3 cell line, 2 hrs compound treatment; read-out: pEGFRY1068 ELISA3T3T790M—L858R IC50.
A further experiment deals with EGFR L858R (Homo sapiens, UniProt P00533, L858R). Nature of the experiment: pEGFR Y1068 ELISA assay, NIH3T3/EGFR_L858R cells.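 Note: sandwich ELISA of phospho-EGFR Tyr1068 in lysates of stably transfected NIH/3T3 pools after 2 h compound exposure at 37 °C, 11-point threefold dilution series run in duplicate.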 The following applies: 3T3 cell line, 2 hrs compound treatment; read-out: pEGFRY1068 ELISA3T3 L858R IC50. (ELISA stands for enzyme-linked immunosorbent assay.)
Experiment [1] concerns the target T1, EGFR wildtype, endogenous (Homo sapiens, UniProt P00533).
T1 construct: A549 (EGFR wildtype, endogenous); host or cells: A549
Nature of the experiment: pEGFR Y1068 ELISA assay, A549 cells.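 Note: sandwich ELISA of phospho-EGFR Tyr1068 in cell lysates, cells exposed to compound for 2 h before EGF stimulation, 11-point threefold dilution series run in duplicate.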 The following applies: full serum media, stimulated 10 min with EGF (40 ng/mL), read-out: pEGFRY1068 ELISAA549 IC50.

Another experiment has as its target EGFR E746-A750 deletion (Homo sapiens, UniProt P00533, DEL746-750). Nature of the experiment: pEGFR Y1068 ELISA assay, NIH3T3/EGFR_E746-A750 deletion cells.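 Note: sandwich ELISA on cell lysates detecting phospho-EGFR at Tyr1068, compounds run as 11-point threefold dilution series in duplicate, IC50 from inhibition of this phosphorylation signal.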 The following applies: 3T3 Del cells, 2 hrs compound treatment; read-out: ELISA7E 3T3 Del IC50.

A value given as a limit tells only on which side of the number the result lay.

T1 sequence (P00533 25-1210): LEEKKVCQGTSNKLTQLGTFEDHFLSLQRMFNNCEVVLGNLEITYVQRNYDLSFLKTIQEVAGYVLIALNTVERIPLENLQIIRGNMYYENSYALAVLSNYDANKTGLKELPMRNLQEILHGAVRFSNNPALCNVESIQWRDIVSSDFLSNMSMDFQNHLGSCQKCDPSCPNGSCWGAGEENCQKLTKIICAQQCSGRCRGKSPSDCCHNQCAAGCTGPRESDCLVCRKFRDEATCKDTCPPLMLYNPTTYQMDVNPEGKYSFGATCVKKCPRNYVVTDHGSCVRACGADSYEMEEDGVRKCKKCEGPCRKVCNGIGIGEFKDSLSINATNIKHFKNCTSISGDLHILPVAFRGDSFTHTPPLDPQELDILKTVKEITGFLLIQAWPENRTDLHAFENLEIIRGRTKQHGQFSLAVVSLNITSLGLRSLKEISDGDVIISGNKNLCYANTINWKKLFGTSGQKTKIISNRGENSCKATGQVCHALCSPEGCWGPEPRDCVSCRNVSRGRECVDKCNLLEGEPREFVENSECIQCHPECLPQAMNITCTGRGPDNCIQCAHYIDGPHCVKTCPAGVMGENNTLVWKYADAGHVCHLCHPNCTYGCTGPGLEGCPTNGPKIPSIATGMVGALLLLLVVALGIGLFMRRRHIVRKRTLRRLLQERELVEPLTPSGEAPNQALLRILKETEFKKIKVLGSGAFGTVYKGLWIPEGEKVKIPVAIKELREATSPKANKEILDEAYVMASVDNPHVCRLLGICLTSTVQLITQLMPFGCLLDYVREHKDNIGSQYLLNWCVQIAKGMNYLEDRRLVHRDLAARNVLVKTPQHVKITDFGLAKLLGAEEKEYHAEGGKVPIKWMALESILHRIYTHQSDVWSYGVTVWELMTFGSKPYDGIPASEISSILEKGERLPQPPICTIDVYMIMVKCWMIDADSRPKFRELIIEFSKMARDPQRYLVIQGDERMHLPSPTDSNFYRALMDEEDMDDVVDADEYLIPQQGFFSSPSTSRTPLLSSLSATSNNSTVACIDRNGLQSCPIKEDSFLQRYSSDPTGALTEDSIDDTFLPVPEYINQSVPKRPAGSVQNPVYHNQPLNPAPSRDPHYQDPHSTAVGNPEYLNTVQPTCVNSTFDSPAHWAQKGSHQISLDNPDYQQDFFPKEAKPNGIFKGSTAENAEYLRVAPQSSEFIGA
Chain of EGFR E746-A750 deletion (P00533 with tags, fused parts or gaps DEL746-750): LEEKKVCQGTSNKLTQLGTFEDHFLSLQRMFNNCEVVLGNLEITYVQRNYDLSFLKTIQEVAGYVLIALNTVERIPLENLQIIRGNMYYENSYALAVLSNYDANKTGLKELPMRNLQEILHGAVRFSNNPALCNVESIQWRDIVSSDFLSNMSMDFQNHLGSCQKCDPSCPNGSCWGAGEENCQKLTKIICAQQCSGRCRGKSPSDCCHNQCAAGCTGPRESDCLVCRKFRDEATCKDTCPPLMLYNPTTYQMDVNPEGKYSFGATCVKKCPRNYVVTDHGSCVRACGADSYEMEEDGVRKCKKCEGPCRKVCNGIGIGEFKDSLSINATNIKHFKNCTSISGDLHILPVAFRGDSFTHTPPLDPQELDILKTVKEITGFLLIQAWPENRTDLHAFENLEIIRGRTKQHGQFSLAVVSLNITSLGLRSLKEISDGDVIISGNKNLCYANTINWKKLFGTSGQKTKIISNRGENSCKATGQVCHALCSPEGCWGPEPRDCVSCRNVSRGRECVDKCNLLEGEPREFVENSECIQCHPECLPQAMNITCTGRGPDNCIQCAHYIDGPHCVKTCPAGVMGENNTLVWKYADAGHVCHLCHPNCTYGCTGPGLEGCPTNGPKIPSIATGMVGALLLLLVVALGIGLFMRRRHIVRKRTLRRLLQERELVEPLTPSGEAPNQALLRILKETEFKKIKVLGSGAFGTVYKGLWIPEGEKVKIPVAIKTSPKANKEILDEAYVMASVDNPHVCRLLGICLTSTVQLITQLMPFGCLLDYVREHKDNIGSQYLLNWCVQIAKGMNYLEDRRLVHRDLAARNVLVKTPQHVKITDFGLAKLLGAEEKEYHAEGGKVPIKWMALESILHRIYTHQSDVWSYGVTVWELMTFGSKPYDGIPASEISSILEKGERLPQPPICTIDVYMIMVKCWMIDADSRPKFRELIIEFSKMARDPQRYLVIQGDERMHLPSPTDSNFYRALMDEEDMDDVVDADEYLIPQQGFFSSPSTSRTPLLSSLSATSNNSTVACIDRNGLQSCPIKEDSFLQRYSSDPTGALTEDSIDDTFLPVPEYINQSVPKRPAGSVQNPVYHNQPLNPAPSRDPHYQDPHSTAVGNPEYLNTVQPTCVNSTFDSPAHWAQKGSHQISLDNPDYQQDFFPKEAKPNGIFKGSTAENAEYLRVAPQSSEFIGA
Chain of EGFR L858R+T790M (P00533 25-1210 T790M/L858R): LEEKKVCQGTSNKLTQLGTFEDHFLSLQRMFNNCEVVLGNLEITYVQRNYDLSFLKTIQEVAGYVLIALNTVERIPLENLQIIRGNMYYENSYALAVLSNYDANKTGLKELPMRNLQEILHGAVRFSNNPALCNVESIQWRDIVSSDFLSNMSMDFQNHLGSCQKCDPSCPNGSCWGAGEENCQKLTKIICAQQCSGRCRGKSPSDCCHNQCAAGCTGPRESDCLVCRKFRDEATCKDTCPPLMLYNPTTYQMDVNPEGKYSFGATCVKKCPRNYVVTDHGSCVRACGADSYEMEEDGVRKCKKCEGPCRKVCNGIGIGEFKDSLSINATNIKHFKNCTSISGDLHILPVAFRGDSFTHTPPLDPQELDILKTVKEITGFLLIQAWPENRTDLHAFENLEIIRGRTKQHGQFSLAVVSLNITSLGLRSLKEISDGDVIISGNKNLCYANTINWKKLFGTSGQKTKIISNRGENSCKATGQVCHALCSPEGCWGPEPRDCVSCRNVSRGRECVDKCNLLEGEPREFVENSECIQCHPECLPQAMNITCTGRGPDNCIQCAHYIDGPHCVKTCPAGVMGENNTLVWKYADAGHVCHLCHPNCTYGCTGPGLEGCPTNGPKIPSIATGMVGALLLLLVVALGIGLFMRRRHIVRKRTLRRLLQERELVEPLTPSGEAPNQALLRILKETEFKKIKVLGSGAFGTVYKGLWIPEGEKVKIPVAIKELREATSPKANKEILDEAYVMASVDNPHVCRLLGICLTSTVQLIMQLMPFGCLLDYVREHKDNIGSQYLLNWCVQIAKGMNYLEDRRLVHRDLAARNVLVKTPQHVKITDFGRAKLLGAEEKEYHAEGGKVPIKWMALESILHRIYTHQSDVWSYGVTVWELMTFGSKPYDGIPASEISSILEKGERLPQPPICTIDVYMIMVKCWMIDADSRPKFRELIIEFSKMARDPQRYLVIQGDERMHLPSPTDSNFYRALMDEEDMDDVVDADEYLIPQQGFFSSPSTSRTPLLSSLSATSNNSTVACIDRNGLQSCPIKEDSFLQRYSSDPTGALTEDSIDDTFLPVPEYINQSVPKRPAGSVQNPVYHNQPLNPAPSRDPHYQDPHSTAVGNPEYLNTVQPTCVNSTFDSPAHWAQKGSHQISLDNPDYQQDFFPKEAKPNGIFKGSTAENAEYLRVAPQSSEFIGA
Chain of EGFR L858R (P00533 25-1210 L858R): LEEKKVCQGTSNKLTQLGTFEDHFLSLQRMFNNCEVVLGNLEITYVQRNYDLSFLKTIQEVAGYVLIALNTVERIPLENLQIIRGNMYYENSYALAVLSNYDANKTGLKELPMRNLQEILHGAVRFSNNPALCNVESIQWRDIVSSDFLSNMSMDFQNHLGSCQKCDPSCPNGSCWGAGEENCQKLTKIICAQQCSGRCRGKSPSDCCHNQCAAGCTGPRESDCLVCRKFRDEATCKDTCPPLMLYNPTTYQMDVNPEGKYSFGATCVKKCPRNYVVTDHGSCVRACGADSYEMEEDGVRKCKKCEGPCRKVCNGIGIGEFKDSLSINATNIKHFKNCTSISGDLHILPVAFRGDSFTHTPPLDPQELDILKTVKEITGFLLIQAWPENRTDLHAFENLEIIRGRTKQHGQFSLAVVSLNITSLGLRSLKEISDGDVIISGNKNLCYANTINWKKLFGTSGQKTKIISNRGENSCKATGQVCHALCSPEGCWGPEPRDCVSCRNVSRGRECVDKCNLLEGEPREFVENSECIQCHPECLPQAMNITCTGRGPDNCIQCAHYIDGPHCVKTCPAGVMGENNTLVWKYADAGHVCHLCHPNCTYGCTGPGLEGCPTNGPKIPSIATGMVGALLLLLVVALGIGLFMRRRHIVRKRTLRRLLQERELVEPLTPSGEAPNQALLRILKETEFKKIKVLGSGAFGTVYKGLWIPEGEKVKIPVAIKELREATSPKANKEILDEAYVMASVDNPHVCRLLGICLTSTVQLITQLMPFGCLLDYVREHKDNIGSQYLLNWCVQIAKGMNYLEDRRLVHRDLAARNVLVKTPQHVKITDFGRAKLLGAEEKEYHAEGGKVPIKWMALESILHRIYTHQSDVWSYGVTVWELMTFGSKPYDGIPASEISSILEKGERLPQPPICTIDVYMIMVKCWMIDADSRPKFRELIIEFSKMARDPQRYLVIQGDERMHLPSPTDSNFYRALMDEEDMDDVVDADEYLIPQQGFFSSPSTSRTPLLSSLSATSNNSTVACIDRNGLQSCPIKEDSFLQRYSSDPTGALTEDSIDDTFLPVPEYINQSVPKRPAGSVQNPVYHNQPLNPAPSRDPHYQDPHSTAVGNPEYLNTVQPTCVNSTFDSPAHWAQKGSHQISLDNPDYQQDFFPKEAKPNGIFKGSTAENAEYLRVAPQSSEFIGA

Consider `C=CC(=O)Nc1cccc(COc2nc(Nc3cnn(C)c3)nc3[nH]ccc23)c1` [Example 43], for which the 50% inhibitory concentration (IC50) on EGFR L858R+T790M is 5340 nM; on EGFR L858R, more than 10000 nM; in experiment [1], more than 10000 nM.
With `C=CC(=O)N1CC[C@@H](Oc2nc(Nc3cnn(C)c3)nc3[nH]cc(C#N)c23)C1` [Example 20], the concentration for half-maximal inhibition (IC50) was 1820 nM at EGFR L858R+T790M, more than 10000 nM at EGFR L858R, more than 10000 nM in experiment [1] and 8400 nM on EGFR E746-A750 deletion.
For the compound `C=CC(=O)N1CCc2c(Oc3nc(Nc4cnn(C)c4)nc4[nH]ccc34)cccc21` [Example 38], the IC50 on EGFR L858R+T790M was determined as 8 nM; at EGFR L858R, 90 nM; in experiment [1] it was 5900 nM.
With `C=CC(=O)Nc1cccc(Oc2nc(Nc3cc(CC)nn3C)nc3[nH]ccc23)c1` [Example 47], the 50% inhibitory concentration (IC50) on EGFR L858R+T790M was 50 nM; at EGFR L858R it was 752 nM; in experiment [1], more than 10000 nM; on EGFR E746-A750 deletion it was 317 nM.
With `C=CC(=O)Nc1cccc(Oc2nc(Nc3cc(C)nn3C)nc3[nH]ccc23)c1` [Example 26], the IC50 was determined as 21 nM on EGFR L858R+T790M, 177 nM at EGFR L858R, 6760 nM in experiment [1] and 135 nM at EGFR E746-A750 deletion.
Regarding `C=CC(=O)Nc1cccc(Oc2nc(Nc3cnn(C)c3C)nc3[nH]ccc23)c1` [Example 24], the figures for the 50% inhibitory concentration (IC50) (on EGFR L858R+T790M; on EGFR L858R; in experiment [1]) were 20 nM, 275 nM and 6740 nM, respectively.
Consider `C=CC(=O)N1CCO[C@H](COc2nc(Nc3cnn(C)c3)nc3[nH]ccc23)C1` [Example 18], for which the IC50 on EGFR L858R+T790M was 79 nM; on EGFR L858R, 1500 nM; in experiment [1], more than 10000 nM.
For `C=CS(=O)(=O)N1CCc2c(Oc3nc(Nc4cnn(C)c4)nc4[nH]ccc34)cccc21` [Example 44], the IC50 at EGFR L858R+T790M is 25 nM; on EGFR L858R it was 552 nM; in experiment [1], 3560 nM; on EGFR E746-A750 deletion it was 90 nM.
For the compound `C=CC(=O)Nc1cccc(Oc2nc(Nc3cc(OCCN(C)C)nn3C)nc3[nH]ccc23)c1F` [Example 104], the 50% inhibitory concentration (IC50) on EGFR L858R+T790M was 25 nM; at EGFR L858R, 123 nM; in experiment [1], more than 10000 nM; on EGFR E746-A750 deletion it was 110 nM.
For `C=CC(=O)Nc1cccc(Oc2nc(Nc3cnn(C4CCN(C)CC4)c3)nc3[nH]ccc23)c1` [Example 33] the same measures were 20 nM, 120 nM, 2210 nM and 27 nM.
On to `C=CC(=O)N[C@H]1C[C@H](Oc2nc(Nc3cnn(C)c3)nc3[nH]cnc23)C1` (single isomer, unassigned) [Example 56], for which the IC50 at EGFR E746-A750 deletion was more than 10000 nM.
As to `C=CC(=O)Nc1cccc(Oc2nc(Nc3cnn(CC(=O)N(C)C)c3)nc3[nH]ccc23)c1` [Example 58], the IC50 was 681 nM on EGFR L858R+T790M, more than 10000 nM at EGFR L858R and more than 10000 nM in experiment [1].
On to `C=CC(=O)Nc1cccc(Oc2nc(Nc3cnn(C4CCN(C)C4)c3)nc3[nH]cnc23)c1` (stereo not drawn) [Example 7, N-{3-[(2-{[1-(1-methylpyrrolidin-3-yl)-1H-pyrazol-4-yl]amino}-9H-purin-6-yl)oxy]phenyl}prop-2-enamide], for which the IC50 on EGFR L858R+T790M is 396 nM; at EGFR L858R, 1120 nM; in experiment [1], more than 10000 nM; at EGFR E746-A750 deletion, 1130 nM.
Consider `C=CC(=O)N1CCc2c(Oc3nc(Nc4ccn(C)n4)nc4[nH]ccc34)cccc21` [Example 29], for which the IC50 at EGFR E746-A750 deletion worked out at 116 nM.
As for `C=CC(=O)N1CC(COc2nc(Nc3cnn(C)c3)nc3[nH]ccc23)C1` [Example 16], the figures for the IC50 (on EGFR L858R+T790M; at EGFR L858R; in experiment [1]) were 308 nM, 2510 nM and more than 10000 nM, respectively.
Consider `C=CC(=O)N1C[C@@H]2[C@H](C1)[C@H]2Oc1nc(Nc2cnn(C)c2)nc2[nH]cc(Cl)c12` [Example 66], for which the concentration for half-maximal inhibition (IC50) at EGFR L858R+T790M was 9 nM; at EGFR L858R, 120 nM; in experiment [1], more than 10000 nM; at EGFR E746-A750 deletion it was 309 nM.
Turning to `C=CC(=O)N1CCc2c(Oc3nc(Nc4cnn(C)c4)nc4[nH]cc(C#N)c34)cccc21` [Example 37], the IC50 was 41 nM at EGFR L858R+T790M, 67 nM at EGFR L858R and more than 10000 nM in experiment [1].
For `C=CC(=O)Nc1cccc(Oc2nc(Nc3ccn(C)n3)nc3[nH]cc(F)c23)c1` [Example 1, N-[3-({5-fluoro-2-[(1-methyl-1H-pyrazol-3-yl)amino]-7H-pyrrolo[2,3-d]pyrimidin-4-yl}oxy)phenyl]prop-2-enamide] the same measures were 33 nM, 585 nM and more than 10000 nM.
As for `C=CC(=O)Nc1cccc(Oc2nc(Nc3cn(C)nc3C)nc3[nH]ccc23)c1` [Example 30], the half-inhibitory concentration (IC50) on EGFR L858R+T790M came out at 9 nM; on EGFR L858R it was 91 nM; in experiment [1], 2390 nM; on EGFR E746-A750 deletion, 25 nM.
Consider `C=CC(=O)N1C[C@H](COc2nc(Nc3cnn(C)c3)nc3[nH]ccc23)[C@@H](C)C1` (single isomer, unassigned) [Example 4], for which the IC50 on EGFR L858R+T790M is 77 nM; on EGFR L858R, 547 nM; in experiment [1], more than 10000 nM.
Consider `C=CC(=O)Nc1cccc(Oc2nc(Nc3cc(COC)nn3C)nc3[nH]ccc23)c1` [Example 45], for which the half-maximal inhibitory concentration (IC50) on EGFR L858R+T790M is 84 nM; at EGFR L858R, 700 nM; in experiment [1], more than 10000 nM.
With `C=CC(=O)N(C)C1CC(Oc2nc(Nc3cnn(C)c3)nc3[nH]cc(C#N)c23)C1` (stereo not drawn) [Example 61], the IC50 was 189 nM at EGFR L858R+T790M, 1700 nM at EGFR L858R, more than 10000 nM in experiment [1] and 581 nM at EGFR E746-A750 deletion.
Take `C=CC(=O)Nc1cccc(Oc2nc(Nc3ccn(CCN(C)C)n3)nc3[nH]ccc23)c1` [Example 51]: the IC50 at EGFR L858R+T790M was 35 nM; at EGFR L858R it was 431 nM; in experiment [1], more than 10000 nM; at EGFR E746-A750 deletion it was 137 nM.
For `C=CC(=O)Nc1cccc(Oc2nc(Nc3ccn(C)n3)nc3[nH]ccc23)c1F` [Example 59] the same measures were 7 nM, 78 nM, more than 7890 nM and 36 nM.
With `C=CC(=O)N[C@H]1C[C@H](Oc2nc(Nc3cnn(C)c3)nc3[nH]cc(C#N)c23)C1` [Example 14], the half-inhibitory concentration (IC50) at EGFR L858R+T790M is 1800 nM; on EGFR L858R it was more than 10000 nM; in experiment [1], more than 10000 nM.
On to `C=CC(=O)Nc1cccc(Oc2nc(Nc3cnn(C)c3)nc3[nH]cnc23)c1` [Example 54], for which the 50% inhibitory concentration (IC50) is 168 nM at EGFR L858R+T790M, 672 nM on EGFR L858R, more than 10000 nM in experiment [1] and 192 nM at EGFR E746-A750 deletion.
`C=CC(=O)N1CCO[C@@H](COc2nc(Nc3cnn(C)c3)nc3[nH]ccc23)C1` [Example 17]: the IC50 at EGFR L858R+T790M is 104 nM; at EGFR L858R, 2030 nM; in experiment [1], more than 10000 nM.
`C=CC(=O)Nc1cc(F)cc(Oc2nc(Nc3ccn(C)n3)nc3[nH]ccc23)c1` [Example 49]: the IC50 on EGFR L858R+T790M came out at 7 nM; on EGFR L858R it was 97 nM; in experiment [1], 2020 nM; on EGFR E746-A750 deletion, 22 nM.
Turning to `C=CC(=O)N[C@H]1C[C@H](Nc2nc(Nc3cnn(C)c3)nc3[nH]ccc23)C1` [Example 6, N-[trans-3-({2-[(1-methyl-1H-pyrazol-4-yl)amino]-7H-pyrrolo[2,3-d]pyrimidin-4-yl}amino)cyclobutyl]prop-2-enamide], the half-inhibitory concentration (IC50) (on EGFR L858R+T790M; on EGFR L858R; in experiment [1]) was more than 10000 nM throughout.
Regarding `C=CC(=O)Nc1cccc(Oc2nc(Nc3cnn(CC(C)(C)O)c3)nc3[nH]ccc23)c1` [Example 25], the IC50 on EGFR L858R+T790M was 69 nM; on EGFR L858R, 1030 nM; in experiment [1], more than 10000 nM.
Regarding `C=CC(=O)Nc1cccc(Oc2nc(Nc3cc(C4CC4)nn3C)nc3[nH]ccc23)c1` [Example 46], the half-maximal inhibitory concentration (IC50) on EGFR L858R+T790M is 80 nM; on EGFR L858R, 495 nM; in experiment [1] it was more than 10000 nM.
For the compound `C=CC(=O)N1C[C@H](COc2nc(Nc3cnn([C@@H]4CCOC4)c3)nc3[nH]cc(Cl)c23)[C@@H](OC)C1` [Example 103], the IC50 at EGFR L858R+T790M is 15 nM; on EGFR L858R, 332 nM; in experiment [1], more than 10000 nM; on EGFR E746-A750 deletion, 512 nM.
Regarding `C=CC(=O)Nc1cccc(Oc2nc(Nc3cnn(C4CCOC4)c3)nc3[nH]ccc23)c1` (stereo not drawn) [Example 39], the concentration for half-maximal inhibition (IC50) on EGFR L858R+T790M worked out at 15 nM; at EGFR L858R it was 190 nM; in experiment [1], 2800 nM; at EGFR E746-A750 deletion, 100 nM.
As for `C=CC(=O)Nc1cccc(Oc2nc(Nc3cnn(CCN(C)C)c3)nc3[nH]cnc23)c1` [Example 53], the half-inhibitory concentration (IC50) on EGFR L858R+T790M was 355 nM; on EGFR L858R it was 1140 nM; in experiment [1], more than 10000 nM; on EGFR E746-A750 deletion, 663 nM.
In the case of `C=CC(=O)N1C[C@@H](CC)[C@H](COc2nc(Nc3cnn(C)c3)nc3[nH]ccc23)C1` (single isomer, unassigned) [Example 15], the IC50 at EGFR L858R+T790M is 182 nM; on EGFR L858R it was 834 nM; in experiment [1], more than 10000 nM.
With `C=CC(=O)N[C@H]1C[C@@H](Oc2nc(Nc3cnn(C)c3)nc3[nH]cnc23)C1` (single isomer, unassigned) [Example 55], the IC50 on EGFR E746-A750 deletion is more than 10000 nM.
Take `C=CC(=O)N1C[C@@H](COc2nc(Nc3cnn(C)c3)nc3[nH]ccc23)[C@H](C)C1` (single isomer, unassigned) [Example 3]: the IC50 at EGFR L858R+T790M came to 57 nM; on EGFR L858R it was 733 nM; in experiment [1] it was 9060 nM.
Turning to `C=CC(=O)Nc1cccc(Oc2nc(Nc3cnn([C@H]4CCN(C)C4)c3)nc3[nH]ccc23)c1F` [Example 106], the IC50 was 8 nM on EGFR L858R+T790M, 15 nM at EGFR L858R, more than 10000 nM in experiment [1] and 9 nM on EGFR E746-A750 deletion.

As usually defined, the IC50 is the midpoint of a concentration-inhibition curve.

The values are drawn from patent publication US9040547B2, “Pyrrolopyrimidine and purine derivatives” (PFIZER INC., priority 2011, dated 2015).
